Molecules are shown by their SMILES. Structures can show the parent of a compound that is named as a salt.

In data set [1] the target is T1, chymase extracted from a dog cardiac tissue (Canis lupus familiaris, UniProt P21842).
T1 construct: a heart is enucleated, and left ventricle is separated; from tissue; host or cells: beagle heart, left ventricle
T1 sequence (P21842 22-249): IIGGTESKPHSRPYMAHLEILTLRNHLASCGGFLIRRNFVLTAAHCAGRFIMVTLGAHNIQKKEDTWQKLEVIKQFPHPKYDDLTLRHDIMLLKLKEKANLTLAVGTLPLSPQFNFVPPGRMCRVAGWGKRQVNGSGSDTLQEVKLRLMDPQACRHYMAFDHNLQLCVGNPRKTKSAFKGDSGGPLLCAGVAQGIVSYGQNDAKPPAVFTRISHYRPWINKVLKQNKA
The experiment in a line: Chymase inhibitory effect (liberation of His-Leu from angiotensin I, fluorescence intensity). In kind it is biochemical. Particulars: angiotensin I substrate, 37° C. for one hour, pH 8 reaction buffer; read-out: IC50 (concentration required to inhibit the chymase enzymatic activity by 50%). From the text:
Chymase (enzyme) causes angiotensin I (substrate) to liberate a dipeptide (His-Leu) by the enzyme reaction with the substrate. It was reported that an enzymatic activity of chymase can be measured by measuring fluorescence intensity of the resulting peptide (Biochem. Biophys. Res. Com., 149 (3) 1186 (1987)). Since drugs having chymase inhibitory activities suppress this liberation of the dipeptide, the chymase inhibitory activities of the drugs can be measured by measuring fluorescence intensity. In the present pharmacological test, chymase inhibitory effects of the present compounds were studied by using chymase extracted from a dog cardiac tissue (J. Biol. Chem., 265 (36), 22348 (1990)).
1. A beagle is killed by drawing blood under Nembutal anesthesia, a heart is enucleated, and left ventricle is separated.
2. This left ventricle is finely minced, and the tissue weight is measured.
3. A 0.02 M Tris-HCl buffer (pH 7.4) is added to the tissue in an amount of 10 times by volume the tissue weight. This mixture is homogenized at 8,000 rpm for 20 seconds and then centrifuged at 4° C. and 21,000 rpm for 30 minutes, and the resulting supernatant is discarded.
4. The same procedure as the above 3 is repeated twice for the residue. Then, a 0.02 M Tris-HCl buffer (pH 7.4) containing 1% Triton X-100 and 0.01 M potassium chloride is added to the residue in an amount of 10 times by volume the amount of the residue. This mixture is homogenized at 8,000 rpm for 20 seconds, then incubated at 4° C. for one hour and centrifuged at 21,000 rpm for 30 minutes, and the supernatant is discarded.
5. A 0.02 M Tris-HCl buffer (pH 7.4) containing 1% Triton X-100 and 0.5 M potassium chloride is added to the residue in an amount of 10 times by volume the amount of the residue. This mixture is homogenized at 8,000 rpm for 20 seconds, then incubated at 4° C. for one hour and centrifuged at 21,000 rpm for 30 minutes, and the supernatant is discarded.
6. A 0.02 M Tris-HCl buffer (pH 7.4) containing 1% Triton X-100 and 2.0 M potassium chloride is added to the residue in an amount of 10 times the amount of the residue. This mixture is homogenized at 8,000 rpm for 20 seconds, then incubated at 4° C. for one hour and centrifuged at 21,000 rpm for 30 minutes. The obtained supernatant is used as a chymase enzyme solution.
Tris-HCl and disodium ethylenediaminetetraacetate are dissolved in water so that their concentrations are 92.3 mM and 12.0 mM respectively to prepare a reaction buffer adjusted to pH 8.
Angiotensin I is dissolved in water to prepare a 1.54 mM substrate solution.
A test compound is dissolved in dimethyl sulfoxide to prepare 3.0×10^−3 M, 3.0×10^−4 M, 3.0×10^−5 M and 3.0×10^−6 M test com solutions.
1. The reaction buffer (32.5 μl), the substrate solution (75.0 μl), the chymase enzyme solution (37.5 μl) and the test compound solution (5 μl) are mixed.
2. The obtained mixture is incubated at 37° C. for one hour.
3. To the mixture is added 15% trichloroacetic acid (225 μl), and the whole is centrifuged at 4° C. and 14,000 rpm for five minutes.
4. The supernatant is taken out. A 1% orthophthalaldehyde/methanol solution (165 μl) is added to 300 μl of this supernatant, and the whole is stirred and allowed to stand at room temperature for 10 minutes.
5. 1.5 M Hydrochloric acid (300 μl) is added to the resulting mixture, and the whole is stirred and centrifuged at 4° C. and 14,000 rpm for two minutes.
6. The supernatant is taken out and irradiated with light having a wavelength of 340 nm, and fluorescence intensity is measured at a wavelength of 455 nm.
The blank of this test is defined as follows. The same procedures as in the above 1 to 6 are repeated provided that a 20 mM Tris-HCl buffer (pH 7.4, 37.5 μl) containing 1% Triton X-100 and 2.0 M potassium chloride is used instead of the chymase enzyme solution (37.5 μl), and dimethyl sulfoxide (5 μl) is used instead of the test compound solution (5 μl) in the above 1. The obtained […] is the blank value. […]

Turning to `CC(C)OC(=O)C(=O)[C@H](Cc1ccccc1)NC(=O)[C@@H]1CSC(c2ccccc2)N1C(=O)[C@@H](NC(=O)N(C)CCN)C(C)C` (mixture of isomers) (as salt: hydrochloride) [Compound No. 6-2, Isopropyl (3S)-3-[(2RS,4R)-3-[(2S)-2-[[N-(2-aminoethyl)-N-methylamino]carbonyl]amino]-3-methyl-1-oxobutyl]-2-phenyl-1,3-thiazolidin-4-ylcarboxamidol-2-oxo-4-phenylbutyrate hydrochloride], the melting point is 90 °C.

For `CC(C)OC(=O)C(=O)[C@H](Cc1ccccc1)NC(=O)[C@@H]1CSC(c2ccccc2)N1C(=O)[C@@H](NC(=O)N(C)CCN)C(C)C` (mixture of isomers) [Compound No. 6-2, Isopropyl (3S)-3-[(2RS,4R)-3-[(2S)-2-[[N-(2-aminoethyl)-N-methylamino]carbonyl]amino]-3-methyl-1-oxobutyl]-2-phenyl-1,3-thiazolidin-4-ylcarboxamidol-2-oxo-4-phenylbutyrate hydrochloride], the IC50 in data set [1] was 57 nM.

With `CC(C)OC(=O)C(=O)[C@H](Cc1ccccc1)NC(=O)[C@@H]1CSCN1C(=O)[C@@H](NC(=O)OCc1ccccc1)C(C)C` [Compound No. 2-1, Isopropyl (3S)-3-[(4R)-3-[(2S)-3-methyl-1-oxo-2-[[(phenylmethoxy)carbonyl]amino]butyl]-1,3-thiazolidin-4-ylcarboxamido]-2-oxo-4-phenylbutyrate], the IC50 in data set [1] worked out at 47 nM.

With `COCC(=O)N[C@H](C(=O)N1CSC[C@H]1C(=O)N[C@@H](Cc1ccccc1)C(=O)C(=O)OC(C)C)C(C)C` [Compound No. 2-19, Isopropyl (3S)-3-[(4R)-3-[(2S)-2-[(methoxymethyl)carbonyl]amino-3-methyl-1-oxobutyl]-1,3-thiazolidin-4-ylcarboxamido]-2-oxo-4-phenylbutyrate], the IC50 in data set [1] was found to be 56 nM.

Consider `CC(C)OC(=O)C(=O)[C@H](Cc1ccccc1)NC(=O)[C@@H]1CSCN1C(=O)[C@@H](NC(=O)COc1ccccc1)C(C)C` [Compound No. 2-20, Isopropyl (3S)-3-[(4R)-3-[(2S)-3-methyl-1-oxo-2-[[(phenoxylmethyl)carbonyl]amino]butyl]-1,3-thiazolidin-4-ylcarboxamido]-2-oxo-4-phenylbutyrate], for which, in data set [1], the IC50 was 44 nM.

As to `CC(C)OC(=O)C(=O)[C@H](Cc1ccccc1)NC(=O)[C@@H]1CSCN1C(=O)[C@@H](NC(=O)OC(C)(C)C)C(C)C` [Compound No. 2-21, Isopropyl (3S)-3-[(4R)-3-[(2S)-2-(tert-butoxycarbonyl)amino-3-methyl-1-oxobutyl]-1,3-thiazolidin-4-ylcarboxamido]-2-oxo-4-phenylbutyrate], the IC50 in data set [1] came to 26 nM.

Regarding `CC(C)OC(=O)C(=O)[C@H](Cc1ccccc1)NC(=O)[C@@H]1CSCN1C(=O)[C@@H](NC(=O)N(C)Cc1ccccc1)C(C)C` [Compound No. 2-25, Isopropyl (3S)-3-[(4R)-3-[(2S)-3-methyl-2-[[N-methyl-N-(phenylmethyl)amino]carbonyl]amino-1-oxobutyl]-1,3-thiazolidin-4-ylcarboxamido]-2-oxo-4-phenylbutyrate], the IC50 in data set [1] is 31 nM.

Consider `CC(C)OC(=O)C(=O)[C@H](Cc1ccccc1)NC(=O)[C@@H]1CSCN1C(=O)[C@@H](NC(=O)N(C)CCNC(=O)OC(C)(C)C)C(C)C` [Compound No. 2-26, Isopropyl (3S)-3-[(4R)-3-[(2S)-2-[[N-[2-[(tert-butoxycarbonyl)amino]ethyl]-N-methylamino]carbonyl]amino-3-methyl-1-oxobutyl]-1,3-thiazolidin-4-ylcarboxamido]-2-oxo-4-phenylbutyrate], for which the IC50 in data set [1] was found to be 12 nM.

For `CC(C)[C@H](NC(=O)OCc1ccccc1)C(=O)N1CSC[C@H]1C(=O)N[C@@H](Cc1ccccc1)C(=O)C(=O)OCc1ccccc1` [Compound No. 2-37, Phenylmethyl (3S)-3-[(4R)-3-[(2S)-3-methyl-1-oxo-2-[[(phenylmethoxy)carbonyl]amino]butyl]-1,3-thiazolidin-4-ylcarboxamido]-2-oxo-4-phenylbutyrate], the IC50 in data set [1] is 66 nM.

The term melting point denotes the temperature, or range, at which the solid turns liquid.

Values taken from patent publication US6410576B1, “Thiazolidine derivatives” (Santen Pharmaceutical Co., Ltd., priority 1998, dated 2002).
